For 14 molecules, IC50 results are on record in patent US20230159527A1, “COMPOUNDS AS BCL-2 INHIBITORS” (Fochon Pharmaceuticals, Ltd., priority 2020, published 2023).

Each structure is given as a SMILES string.

One may read the IC50 as the concentration at which inhibition is half-maximal. Read a low IC50 as greater potency.

Assay [1] deals with RS4;11 cells. In words: Cell proliferation assay, RS4;11 cells (MTS, 72 h). It is filed as cell-based. Conditions: Homo sapiens, RS4;11 cell proliferation. The protocol:
MTS testing kit was purchased from Promega. The RPMI-1640, Fetal bovine serum and Penicillin-Streptomycin were purchased from Gibco. Dimethyl sulfoxide (DMSO) was purchased from Sigma.
To investigate whether a compound is able to inhibit the activity of Bcl-2 in cells, a mechanism-based assay using RS4;11 (ATCC® CRL-1873™) cell was developed. In this assay, inhibition of Bcl-2 was detected by the inhibition of RS4;11 cells proliferation. RS4;11 cells were cultured in culture flasks to 40-80% confluence in RPMI-1640 plus 10% fetal bovine serum. Cells were collected and plated onto 96-well plates at desired cell density (30000 cells/well). Plates were incubated overnight at 37° C., with 5% CO2 to adhere. Compounds were added to the plates, and the final compound concentrations were 10000, 3333, 1111, […], 41, 14, 4.6 and 1.5 nM. Plates plated with RS4;11 cells were placed at 37° C., with 5% CO2 for 72 h. 20 μl MTS/100 μl medium mixture solution were added to each well and incubate the plates for exactly 2 hours. The reaction was stopped by adding 25 μl 10% SDS per well. Measure absorbance at 490 nm and 650 nm (reference wavelength). IC50 was calculated using GraphPad Prism 5.0.

Assay [2] concerns DoHH2 cells. In words: Cell proliferation assay, DoHH2 cells (MTS, 120 h). It is filed as cell-based. Conditions: Homo sapiens, DOHH-2. In a few lines: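 DoHH2 cells in RPMI-1640 with 10% FBS were plated at 5000/well and rested 4 h. They were then exposed to compound at nine final concentrations (10000 to 1.5 nM) for 120 h at 37 °C. Viability was read by MTS (2 h, A490) and IC50 derived by curve fitting.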

With `CC(C)c1ccccc1[C@@H]1COCCN1C1CC2(CCN(c3ccc(C(=O)NS(=O)(=O)c4cc([N+](=O)[O-])c5c(n4)OC[C@H]([C@H]4CC[C@](C)(O)CC4)N5)c(Oc4cnc5[nH]ccc5c4)c3)CC2)C1` (single isomer, unassigned) [Example B-47, 2-((1H-pyrrolo[2,3-b]pyridin-5-yl)oxy)-N-(((S)-2-((1r,4S)-4-hydroxy-4-methylcyclohexyl)-8-nitro-2,3-dihydro-1H-pyrido[2,3-b][1,4]oxazin-6-yl)sulfonyl)-4-(2-((R or S)-3-(2-isopropylphenyl)morpholino)-7-azaspiro[3.5]nonan-7-yl) benzamide], the IC50 in assay [1] and in assay [2] was not above 1 nM in each case.
Regarding `O=C(NS(=O)(=O)c1cnc(NCC2CCC(N=S3(=O)CCOCC3)CC2)c([N+](=O)[O-])c1)c1ccc(N2CCC3(CC2)CC(N2CCC[C@@H]2c2ccccc2C2CC2)C3)cc1Oc1cnc2[nH]ccc2c1` (stereo partly drawn) [Example A-23b, (R)-2-((1H-pyrrolo[2,3-b]pyridin-5-yl)oxy)-4-(2-(2-(2-cyclopropyl-phenyl)pyrrolidin-1-yl)-7-azaspiro [3.5]nonan-7-yl)-N-((5-nitro-6-(((4-((4-oxido-1,4λ^6-oxathian-4-ylidene)amino)cyclohexyl)methyl)amino)pyridin-3-yl)sulfonyl) benzamide], the IC50 in assay [1] and in assay [2] was not above 1 nM in each case.
`CC(C)c1ccccc1[C@@H]1CCCN1C1CC2(CCN(c3ccc(C(=O)NS(=O)(=O)c4cc([N+](=O)[O-])c5c(n4)OC[C@H]([C@H]4CC[C@](C)(O)CC4)N5)c(Oc4cnc5[nH]ccc5c4)c3)CC2)C1` (single isomer, unassigned) [Example B-34, 2-((1H-pyrrolo[2,3-b]pyridin-5-yl)oxy)-N-(((S)-2-((1r,4S)-4-hydroxy-4-methylcyclohexyl)-8-nitro-2,3-dihydro-1H-pyrido[2,3-b] [1,4]oxazin-6-yl)sulfonyl)-4-(2-((R or S)-2-(2-isopropylphenyl)pyrrolidin-1-yl)-7-azaspiro[3.5]nonan-7-yl)benzamide]: the half-inhibitory concentration (IC50) in assay [1] and in assay [2] was not above 1 nM each time.
Take `O=C(NS(=O)(=O)c1cnc(NCC2(F)CCOCC2)c([N+](=O)[O-])c1)c1ccc(N2CCC3(CC2)CC(N2CCC[C@@H]2c2ccccc2C2CC2)C3)cc1Oc1cnc2[nH]ccc2c1` [Example A-32b, (R)-2-((1H-pyrrolo[2,3-b]pyridin-5-yl)oxy)-4-(2-(2-(2-cyclopropyl-phenyl)pyrrolidin-1-yl)-7-azaspiro [3.5]nonan-7-yl)-N-((6-(((4-fluoro-tetrahydro-2H-pyran-4-yl)methyl)amino)-5-nitropyridin-3-yl)sulfonyl)benzamide]: the IC50 in assay [1] and in assay [2] was not above 1 nM each time.
Take `CC(C)c1ccccc1[C@H]1CCCN1C1CC2(CCN(c3ccc(C(=O)NS(=O)(=O)c4cnc(NCC5CCC(N=S(C)(C)=O)CC5)c([N+](=O)[O-])c4)c(Oc4cnc5[nH]ccc5c4)c3)CC2)C1` (stereo partly drawn) [Example A-10b, (R)-2-((1H-pyrrolo[2,3-b]pyridin-5-yl)oxy)-N-((6-(((4-((dimethyl (oxo)-λ^6-sulfanylidene)amino)cyclo-hexyl)methyl)amino)-5-nitropyridin-3-yl)sulfonyl)-4-(2-(2-(2-isopropyl-phenyl)pyrrolidin-1-yl)-7-azaspiro [3.5]nonan-7-yl)benzamide]: the IC50 in assay [1] and in assay [2] was not above 1 nM each time.
As for `O=C(NS(=O)(=O)c1cnc(NCC2CCOCC2)c([N+](=O)[O-])c1)c1ccc(N2CCC3(CC2)CC(N2CCOC[C@H]2c2ccccc2C2CC2)C3)cc1Oc1cnc2[nH]ccc2c1` (single isomer, unassigned) [Example A-75, (R or S)-2-((1H-pyrrolo[2,3-b]pyridin-5-yl)oxy)-4-(2-(3-(2-cyclopropyl-phenyl)morpholino)-7-azaspiro[3.5]nonan-7-yl)-N-((5-nitro-6-(((tetra-hydro-2H-pyran-4-yl)methyl)amino)pyridin-3-yl)sulfonyl) benzamide], the IC50 in assay [1] and in assay [2] was not above 1 nM in each case.
Regarding `O=C(NS(=O)(=O)c1cc([N+](=O)[O-])c(NCC2CCOCC2)cn1)c1ccc(N2CCC3(CC2)CC(N2CCC[C@@H]2c2ccccc2C2CC2)C3)cc1Oc1cnc2[nH]ccc2c1` [Example B-1b, (R)-2-((1H-pyrrolo[2,3-b]pyridin-5-yl)oxy)-4-(2-(2-(2-cyclopropylphenyl)pyrrolidin-1-yl)-7-azaspiro[3.5]nonan-7-yl)-N-((4-nitro-5-(((tetrahydro-2H-pyran-4-yl)methyl)amino)pyridin-2-yl)sulfonyl)benzamide], the 50% inhibitory concentration (IC50) in assay [1] and in assay [2] was not above 1 nM in each case.
Take `CC(C)c1ccccc1[C@H]1CCCN1C1CC2(CCN(c3ccc(C(=O)NS(=O)(=O)c4cc([N+](=O)[O-])c(NCC5CCOCC5)cn4)c(Oc4cnc5[nH]ccc5c4)c3)CC2)C1` [Example B-4b, (R)-2-((1H-pyrrolo[2,3-b]pyridin-5-yl)oxy)-4-(2-(2-(2-isopropylphenyl)pyrrolidin-1-yl)-7-azaspiro [3.5]nonan-7-yl)-N-((4-nitro-5-(((tetrahydro-2H-pyran-4-yl)methyl)amino)pyridin-2-yl)sulfonyl) benzamide]: the IC50 in assay [1] and in assay [2] was not above 1 nM throughout.
As to `O=C(NS(=O)(=O)c1cc([N+](=O)[O-])c2c(n1)OC[C@H](C1CC1)N2)c1ccc(N2CCC3(CC2)CC(N2CCCC2c2ccccc2C2CC2)C3)cc1Oc1cnc2[nH]ccc2c1` (single isomer, unassigned) [Example B-52, 2-((1H-pyrrolo[2,3-b]pyridin-5-yl)oxy)-N-(((S)-2-cyclopropyl-8-nitro-2,3-dihydro-1H-pyrido[2,3-b] [1,4]oxazin-6-yl)sulfonyl)-4-(2-((R or S)-2-(2-cyclopropylphenyl)pyrrolidin-1-yl)-7-azaspiro[3.5]nonan-7-yl)benzamide], the IC50 in assay [1] and in assay [2] was not above 1 nM in each case.
Regarding `CCS(=O)(CC)=NC1CCC(CNc2ncc(S(=O)(=O)NC(=O)c3ccc(N4CCC5(CC4)CC(N4CCC[C@@H]4c4ccccc4C(C)C)C5)cc3Oc3cnc4[nH]ccc4c3)cc2[N+](=O)[O-])CC1` (single isomer, unassigned) [Example A-13b, (R or S)-2-((1H-pyrrolo[2,3-b]pyridin-5-yl)oxy)-N-((6-(((4-((diethyl(oxo)-λ^6-sulfanylidene)amino)cyclohexyl)methyl)amino)-5-nitropyridin-3-yl)sulfonyl)-4-(2-(2-(2-isopropyl-phenyl)pyrrolidin-1-yl)-7-azaspiro [3.5]nonan-7-yl)benzamide], the half-maximal inhibitory concentration (IC50) in assay [1] and in assay [2] was not above 1 nM in each case.
For `CC(C)c1ccccc1[C@@H]1CCCN1C1CC2(CCN(c3ccc(C(=O)NS(=O)(=O)c4cc([N+](=O)[O-])c5c(n4)OC[C@H](Cc4ccccn4)N5)c(Oc4cnc5[nH]ccc5c4)c3)CC2)C1` (single isomer, unassigned) [Example B-38, 2-((1H-pyrrolo[2,3-b]pyridin-5-yl)oxy)-4-(2-((R or S)-2-(2-isopropylphenyl)pyrrolidin-1-yl)-7-azaspiro[3.5]nonan-7-yl)-N-(((S)-8-nitro-2-(pyridin-2-ylmethyl)-2,3-dihydro-1H-pyrido [2,3-b][1,4]oxazin-6-yl)sulfonyl) benzamide], the IC50 in assay [1] and in assay [2] was not above 1 nM each time.
Consider `CC(C)c1ccccc1C1CCCN1C1CC2(CCN(c3ccc(C(=O)NS(=O)(=O)c4cc([N+](=O)[O-])c5c(n4)OC[C@H](C4CCOCC4)N5)c(Oc4cnc5[nH]ccc5c4)c3)CC2)C1` (single isomer, unassigned) [Example B-33, 2-((1H-pyrrolo[2,3-b]pyridin-5-yl)oxy)-4-(2-((R or S)-2-(2-isopropylphenyl)pyrrolidin-1-yl)-7-azaspiro[3.5]nonan-7-yl)-N-(((S)-8-nitro-2-(tetrahydro-2H-pyran-4-yl)-2,3-dihydro-1H-pyrido[2,3-b][1,4]oxazin-6-yl)sulfonyl)benzamide], for which the concentration for half-maximal inhibition (IC50) in assay [1] and in assay [2] was not above 1 nM throughout.
On to `O=C(NS(=O)(=O)c1cnc(NCC2C3COCC23)c([N+](=O)[O-])c1)c1ccc(N2CCC3(CC2)CC(N2CCC4C[C@@]42c2ccccc2C2CC2)C3)cc1Oc1cnc2[nH]ccc2c1` (single isomer, unassigned) [Example A-97a, 2-((1H-pyrrolo[2,3-b]pyridin-5-yl)oxy)-N-((6-(((3-oxabicyclo[3.1.0]hexan-6-yl)methyl)amino)-5-nitro-pyridin-3-yl)sulfonyl)-4-(2-((1R or 1S)-1-(2-cyclopropylphenyl)-2-aza-bicyclo[3.1.0]hexan-2-yl)-7-azaspiro [3.5]nonan-7-yl)benzamide], for which the 50% inhibitory concentration (IC50) in assay [1] and in assay [2] was not above 1 nM throughout.
Take `CCS(=O)(CC)=NC1CCC(CNc2ncc(S(=O)(=O)NC(=O)c3ccc(N4CCC5(CC4)CC(N4CCC[C@@H]4c4ccccc4C4CC4)C5)cc3Oc3cnc4[nH]ccc4c3)cc2[N+](=O)[O-])CC1` (stereo partly drawn) [Example A-2b, (R)-2-((1H-pyrrolo[2,3-b]pyridin-5-yl)oxy)-4-(2-(2-(2-cyclopropylphenyl)pyrrolidin-1-yl)-7-azaspiro[3.5]nonan-7-yl)-N-((6-(((4-((diethyl(oxo)-λ^6-sulfanylidene)amino)cyclohexyl)methyl)amino)-5-nitropyridin-3-yl)sulfonyl)benzamide]: the IC50 in assay [1] and in assay [2] was not above 1 nM in each case.
